Measured values as given in the NIST ThermoML archive (doi:10.1021/je8004613).

Test: xn = mol fraction of the nth substance listed
Settings: 101 kPa, Liquid; for speed of sound: Pulse-echo method; for mass density: Vibrating tube method

COC(C)(C)C [2-methoxy-2-methylpropane] + CCCCCCCC
Settings	mass density, 288.15 K [kg/m3]	mass density, 293.15 K [kg/m3]	mass density, 298.15 K [kg/m3]	mass density, 303.15 K [kg/m3]	mass density, 308.15 K [kg/m3]	speed of sound, 288.15 K [m/s]	speed of sound, 293.15 K [m/s]	speed of sound, 298.15 K [m/s]	speed of sound, 303.15 K [m/s]	speed of sound, 308.15 K [m/s]
x1 = 0.0681	708.15	704.08	700.01	695.91	691.79	1205.4	1184.6	1163.5	1142.6	1121.8
x1 = 0.1226	709.47	705.36	701.24	697.1	692.93	1198.4	1177.6	1156.3	1135.4	1114.7
x1 = 0.2056	711.65	707.48	703.29	699.07	694.83	1187.6	1166.7	1145.4	1124.3	1103.4
x1 = 0.3046	714.48	710.23	705.96	701.64	697.3	1174.2	1153.1	1131.8	1110.5	1089.4
x1 = 0.4001	717.54	713.19	708.81	704.4	699.96	1161.4	1140.2	1118.7	1097.1	1075.9
x1 = 0.4535	719.37	714.96	710.53	706.06	701.56	1154.3	1132.9	1111.2	1089.6	1068.2
x1 = 0.4947	720.85	716.4	711.92	707.4	702.84	1148.7	1127.2	1105.4	1083.8	1062.3
x1 = 0.5442	722.73	718.21	713.67	709.09	704.48	1142	1120.6	1098.7	1077	1055.3
x1 = 0.5996	724.94	720.36	715.75	711.1	706.42	1134.7	1113	1091	1069.1	1047.5
x1 = 0.6916	728.91	724.2	719.47	714.7	709.89	1122.5	1100.6	1078.4	1056.2	1034.3
x1 = 0.8001	734.16	729.3	724.41	719.47	714.49	1108.1	1085.8	1063.2	1040.8	1018.6
x1 = 0.9007	739.68	734.66	729.6	724.5	719.35	1095.1	1072.6	1049.6	1026.9	1004.2
x1 = 0.9487	742.54	737.44	–	727.1	721.86	1089	1066.2	1043.1	1020.1	997.3
